Reference: US20190223450A1, “MICROALGAE EXTRACT FOR AGRICULTURAL USE” (priority 2015, published 2019)

Columns and labels:
[1] = tested on: pathogenesis-related (PR) proteins; assay: Induced resistance in vine: resistance-linked metabolites and pathogenesis-related (PR) proteins; format: in vivo, vine plants; conditions: for production of metabolites linked to resistance phenomena / response: vine plants
Method: (§1) The efficacy of the treatments using the products listed above was assessed on the basis of the induced resistance using foliar discs and potted vine plants. The rate of induced resistance was determined on the basis of the increase in the content of pathogenesis-related (PR) proteins including: peroxidase, polyphenoloxidase, Beta 1,3-glucanase, phenylalanine ammonia-lyase, stilbene synthase, PR-1 protein and caffeoyl coenzyme A-3-O-methyltransferase.

[2] = tested on: Plasmopara viticola; assay: Protection of vine foliar discs and potted vine plants against Plasmopara viticola (peronospora); format: in vivo; conditions: vine plants affected by peronospora
Method: The field tests were performed on vine plants affected by peronospora. The potential of certain biocontrol and plant extract products for protection against Plasmopara viticola (peronospora) was also assessed, since some chemical and natural substances can reduce the plants' susceptibility. In particular, comparisons were performed on the use of commercial products or experimental products: • EXPERIMENTAL PRODUCT 1 (EP1) yeast extract • EXPERIMENTAL PRODUCT 2 (EP2) plant extract • EXPERIMENTAL PRODUCT 3 (EP3) Aureobasidium pullulans • CANG extract of Solidago canadensis • P E N extract of mycelium of Penicillium crysogenum • LIN linoleic acid • BABA—chemical elicitors of 3-dl-β-aminobutyric acid • BTH—chemical elicitors of benzothiadiazole • CP—comparator product: extract of microalgae • MBGPT1—alginate extract of Phaeodactylum tricornutum obtained according to the method described above • chrysolaminarin from microalga
as §1

[3] = tested on: zoospores; assay: Inhibition of zoospores (mobility); design: species or system Plasmopara viticola

CCCCC/C=C\C/C=C\CCCCCCCC(=O)O [LIN, linoleic acid]
production of metabolites linked to resistance phenomena / response [1]: induced the production of a wide range of metabolites linked to resistance phenomena
protection [2]: insignificant protection

CC(N)CC(=O)O (racemic) [BABA, 3-dl-β-aminobutyric acid]
formation of necrotic spots and PR proteins ([1]; immediately after inoculation): caused the formation of necrotic spots and PR proteins immediately after inoculation
inhibition of the zoospores (mobility) [3]: unable to inhibit the zoospores

c1ccc2snnc2c1 [BTH, benzothiadiazole]
production of metabolites linked to resistance phenomena / response [1]: induced the production of a wide range of metabolites linked to resistance phenomena
